Source: patent publication US20240423946A1, “COMPOUND FOR TREATING NON-ALCOHOLIC FATTY LIVER DISEASE AND RELATED DISEASES” (Algiax Pharmaceuticals GmbH, priority 2021, published 2024)

What was measured:
Format in all cases: cell-based
HepG2 cells = assay: Palmitate-induced apoptosis, Caspase-Glo 3/7 activity in HepG2 cells; conditions: 24 h
Protocol: NAFLD is characterized by excessive hepatic fat accumulation which leads to cell death, including apoptosis, of liver cells in the progression of the disease. HepG2s (liver cell line) were seeded in a 96-well plate and cultured for 48 h before inducing cell death/apoptosis with 100 μM, 150 μM, 200 μM, 250 μM, 300 μM BSA-coupled palmitic acid (PA). A concentration-response curve to palmitate for apoptosis expressed as percentage of control of Caspase 3/7 (apoptosis marker) activity of HepG2 cells treated for 24 h were determined. As a positive control for apoptosis 2 μM staurosporine was used. Caspase 3/7 activity after 24 h was measured by a Caspase-Glo® 3/7 Assay (Promega) as described in the manufacturer's protocol. Luminescence was recorded after an incubation step of 35 min using the plate-reader luminometer of a Cytation™ 5.
HepG2 cells were treated with palmitate acid (200 μM) in the presence or absence of HK4 (100 nM) and GABA (100 μM), as well as with the vehicle BSA and the positive control for apoptosis staurosporine (STP) (2 μM) for 24 h. As a negative control an apoptosis inhibitor (API) (100 μM) was used. As described in Example I Caspase 3/7 activity after 24 h was measured by a Caspase-Glo® 3/7 Assay (Promega).

Caspase 7 = assay: Human apoptosis array, Caspase 7 protein in lysates of treated HepG2 cells; conditions: HepG2, HK4 100 nM and PA
Protocol: Markers of apoptosis were analysed in the cell lysates of treated HepG2s with a human apoptosis array (RayBiotech, Peachtree Corners, GA) according to manufacturer's protocol. The total protein content was measured using the Pierce BCA protein assay kit (Thermo Fisher Scientific). Membranes were incubated with 250 μg of total protein from untreated and treated HepG2 cells. The spot intensities were quantified after an exposure of 500 ms using the ChemStudio analysis software (Analytik Jena) and normalized to the untreated control after background subtraction with the design spots for it.

[1] = tested on: primary human hepatocytes; assay: Palmitate-induced apoptosis, caspase 3/7 activity in human primary hepatocytes; conditions: 24 h
From the text: Human primary hepatocytes were purchased from Thermo Fisher and cultured according to the manufacturer's instructions. […] To achieve finale palmitate concentrations, sodium palmitate was complexed with a preheated BSA (Carl Roth, Karlsruhe, Germany) solution at a 2.6:1 molar ratio.

NF-κB subunit p65 = assay: Western blot, phospho-NF-κB p65 to NF-κB p65 ratio in HepG2 cells
Protocol: Beside excessive hepatic fat accumulation, inflammation is one of the critical steps in the progression of NAFL to NASH. As an indicator of inflammation, phosphorylation of the transcription factor NF-κB was monitored by a phospho-p65 specific antibody using protein extraction and western blotting.
HepG2 cells were homogenized in lysis buffer including a protease and phosphatase inhibitor cocktail. Cell lysates were centrifuged at 12.000 rpm for 15 min. The protein concentrations were determined using the Pierce BCA protein assay kit (Thermo Fisher Scientific). 20 μg of Proteins were resolved on 4-20% gradient gels (Bio-Rad, Hercules, CA) and transferred onto an Immun-Blot PVDF membrane (Bio-Rad). Membranes were blocked with 5% non-fat dry milk or bovine serum albumin in TBPS containing 0.1% Tween for 1 h at RT, followed by an overnight incubation with the respective primary antibody: Phospho-NF-κB p65 and NF-κB p65 (Cell Signaling Technology, Frankfurt, Germany). Membranes were incubated with the corresponding HRP-coupled secondary antibody. Protein bands were visualized using an ECL Western blot detection substrate (Bio-Rad). The band intensities were quantified with the ChemStudio analysis software (Analytik Jena, Jena, Germany) and normalized by GAPDH band intensity.

Cc1cc(NC(=S)/C(C#N)=C(\O)C2CC2)ccc1C#N [HK4, 2-Cyano-N-(4-cyano-3-methyl-phenyl)-3-cyclopropyl-3-hydroxy-thioacrylamide]
Caspase 3/7 activity provoked by palmitate 200 μM, with HK4 (HepG2 cells; HepG2, HK4 100 nM + palmitate 200 μM): 47.32±19.56%
Caspase 3/7 activity compared to untreated control cells (HepG2 cells; HepG2, HK4 alone (100 nM)): 21.60±2.52%
Caspase 7 protein expression vs. PA alone (Caspase 7): 60.91±4.18%
Caspase 3/7 activity provoked by palmitate 100 μM, HK4 pre-treatment ([1]; HK4 (10 μM) 1 h prior to palmitate 100 μM): 58.73±16.86%
Caspase 3/7 activity provoked by palmitate 200 μM, HK4 pre-treatment ([1]; HK4 (10 μM) 1 h prior to palmitate 200 μM): 57.13±21.47%
Effect on phosphorylation of the NF-κB subunit p65 compared to untreated cells (NF-κB subunit p65; HepG2, HK4 alone): no effect
Ratio of phosphorylated NF-κB to non-phosphorylated NF-κB subunit p65, % of PA (NF-κB subunit p65; HepG2, pre-incubation with HK4 then palmitate acid, PA = 100%): 55.24±10.64%

NCCCC(=O)O [GABA, gamma-Aminobutyric acid]
PA-induced apoptosis rate (caspase 3/7 activity), with GABA (HepG2 cells; HepG2, GABA 100 μM + palmitate 200 μM): 764.9±16.72%

CCCCCCCCCCCCCCCC(=O)O [Palmitate acid, palmitic acid, reference compound]
Caspase 3/7 activity provoked by palmitate 200 μM (HepG2 cells; HepG2, palmitate 200 μM alone): 1130±103.3%
Caspase 3/7 activity (apoptosis), percentage of control (HepG2 cells; HepG2, palmitate acid 100 μM alone): 342.2±12.25%
Caspase 3/7 activity provoked by palmitate 100 μM ([1]; palmitate 100 μM alone): 147.3±31.3%
Caspase 3/7 activity provoked by palmitate 200 μM ([1]; palmitate 200 μM alone): 155.1±3.78%
